Measured values reported in the supplement of paper PMC10307832.

Tests used:
Experiment in all cases: relative viability (nuclei count vs DMSO), 5 days (fraction); higher = more cells survive
Nelarabine + Olaparib = compound: COc1nc(N)nc2c1ncn2[C@@H]1O[C@H](CO)[C@@H](O)[C@@H]1O [Nelarabine] + O=C(c1cc(Cc2n[nH]c(=O)c3ccccc23)ccc1F)N1CCN(C(=O)C2CC2)CC1 [Olaparib] (partner 8 µM)
How it was run: (§1)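 Values are medians from duplicate plates. Each reflects relative viability, defined as the nuclei count of treated wells over that of vehicle wells. Lung cancer cell lines in 1536-well plates were pin-tool dosed one day after seeding with one drug alone or with a fixed anchor-drug dose plus five library-drug doses (not always all listed) in √10 steps, then fixed, stained and imaged at 4× after 5 days.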

Adavosertib + Linsitinib = compound: C=CCn1c(=O)c2cnc(Nc3ccc(N4CCN(C)CC4)cc3)nc2n1-c1cccc(C(C)(C)O)n1 [Adavosertib] + C[C@]1(O)C[C@@H](c2nc(-c3ccc4ccc(-c5ccccc5)nc4c3)c3c(N)nccn32)C1 [Linsitinib] (partner 1 µM)
How it was run: as §1

Nelarabine + Crizotinib = compound: COc1nc(N)nc2c1ncn2[C@@H]1O[C@H](CO)[C@@H](O)[C@@H]1O [Nelarabine] + C[C@@H](Oc1cc(-c2cnn(C3CCNCC3)c2)cnc1N)c1c(Cl)ccc(F)c1Cl [Crizotinib] (partner 1 µM)
How it was run: as §1

Nelarabine + Pemetrexed = compound: COc1nc(N)nc2c1ncn2[C@@H]1O[C@H](CO)[C@@H](O)[C@@H]1O [Nelarabine] + Nc1nc2[nH]cc(CCc3ccc(C(=O)N[C@@H](CCC(=O)O)C(=O)O)cc3)c2c(=O)[nH]1 [Pemetrexed] (partner 0.2 µM)
How it was run: as §1

| Cell Line | relative viability (Nelarabine + Olaparib; first compound 0.01 µM) | relative viability (Nelarabine + Olaparib; first compound 0.03162 µM) | relative viability (Nelarabine + Olaparib; first compound 0.1 µM) | relative viability (Nelarabine + Olaparib; first compound 0.3162 µM) | relative viability (Nelarabine + Olaparib; first compound 1 µM) | relative viability (Adavosertib + Linsitinib; first compound 0.01 µM) | relative viability (Adavosertib + Linsitinib; first compound 0.03162 µM) | relative viability (Adavosertib + Linsitinib; first compound 0.1 µM) | relative viability (Adavosertib + Linsitinib; first compound 0.3162 µM) | relative viability (Nelarabine + Crizotinib; first compound 0.01 µM) | relative viability (Nelarabine + Crizotinib; first compound 0.03162 µM) | relative viability (Nelarabine + Crizotinib; first compound 0.1 µM) | relative viability (Nelarabine + Crizotinib; first compound 0.3162 µM) | relative viability (Nelarabine + Crizotinib; first compound 1 µM) | relative viability (Nelarabine + Pemetrexed; first compound 0.01 µM) | relative viability (Nelarabine + Pemetrexed; first compound 0.03162 µM) | relative viability (Nelarabine + Pemetrexed; first compound 0.1 µM) | relative viability (Nelarabine + Pemetrexed; first compound 0.3162 µM) | relative viability (Nelarabine + Pemetrexed; first compound 1 µM) |
| --- | --- | --- | --- | --- | --- | --- | --- | --- | --- | --- | --- | --- | --- | --- | --- | --- | --- | --- | --- |
| SK-LU-1 | 0.524 | 0.314 | 0.5 | 0.505 | 0.397 | 1.19 | 1.02 | 0.77 | 0.334 | 1.27 | 0.518 | 1.04 | 1.01 | 0.994 | 1.19 | 0.796 | 1.06 | 0.995 | 1.04 |
| LXF-289 | 1.2 | 1.13 | 1.01 | 1.04 | 1.01 | 0.936 | 0.97 | 0.944 | 1.02 | 0.893 | 0.779 | 0.804 | 0.896 | 0.781 | 1 | 0.833 | 0.866 | 0.973 | 0.906 |
| NCI-H1993 | 1.19 | 0.993 | 0.865 | 0.939 | 0.984 | 0.769 | 0.793 | 0.797 | 0.749 | 0.96 | 0.891 | 0.775 | 0.93 | 1.02 | 0.632 | 0.477 | 0.598 | 0.64 | 0.67 |
| LCLC-97TM1 |  |  | 0.413 | 0.358 | 0.388 |  | 0.19 | 0.17 | 0.169 | 0.481 | 0.364 | 0.199 | 0.401 | 0.383 |  |  | 0.153 | 0.2 | 0.169 |
| NCI-H2347 | 0.658 | 0.417 | 0.527 | 0.574 | 0.52 | 0.944 | 0.93 | 1.09 | 0.914 | 0.812 | 0.547 | 0.654 | 0.649 | 0.833 | 0.423 | 0.425 | 0.427 | 0.447 | 0.397 |
| LCLC-103H | 0.951 | 0.754 | 0.838 | 0.762 | 0.815 | 1.07 | 1.02 | 1.14 | 1.07 | 1.12 | 1.03 | 1.07 | 1.08 | 1.02 | 0.467 | 0.447 | 0.464 | 0.446 | 0.478 |
| NCI-H596 | 0.654 | 0.708 | 0.759 | 0.756 | 0.728 | 1.04 | 1.01 | 1.01 | 1.11 | 0.948 | 1.15 | 0.96 | 1.04 | 1.12 | 0.504 | 0.517 | 0.574 | 0.492 | 0.491 |
| EPLC-272H | 1.13 | 0.881 | 0.646 | 0.842 | 0.769 | 1.12 | 1.14 | 0.958 | 0.878 | 1.01 | 0.928 | 1 | 0.946 | 0.861 | 0.3 | 0.288 | 0.308 | 0.289 | 0.378 |
| NCI-H1355 | 0.824 | 0.6 | 0.684 | 0.766 | 0.74 | 0.892 | 0.701 | 0.872 | 0.808 | 1.44 | 0.879 | 1.02 | 1.15 | 1.08 | 1.12 | 1.05 | 1.02 | 1.15 | 1.08 |
| SK-MES-1 | 0.819 | 0.66 | 0.707 | 0.773 | 0.762 | 1.03 | 1.02 | 1.1 | 0.835 | 1.07 | 0.922 | 0.961 | 1.05 | 1.1 | 1.17 | 0.951 | 0.957 | 1.03 | 1.07 |
| LOU-NH91 | 0.997 | 0.922 | 0.873 | 0.882 | 0.925 | 1 | 0.938 | 0.964 | 0.871 | 0.755 | 1 | 0.73 | 0.739 | 0.733 | 0.385 | 0.35 | 0.442 | 0.329 | 0.381 |
| HCC-78 | 1.01 | 0.857 |  | 0.914 | 0.87 | 0.597 | 0.422 | 0.522 | 0.562 | 0.379 | 0.365 |  | 0.34 | 0.338 | 0.879 | 0.925 |  | 0.953 | 0.886 |
